From US11649255B2, “Indazoles as hematopoietic progenitor kinase 1 (HPK1) inhibitors and methods using same” (1st Biotherapeutics, Inc., priority 2020, dated 2023)

Target: recombinant human HPK1 (Homo sapiens (Human), UniProt Q92918)
Assay: HPK1 kinase assay (ADP-Glo)
Assay type: biochemical
Conditions: 25 μM ATP, MBP substrate
How it was run: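 Activity was read as ADP formed, detected by ADP-Glo luminescence after the reaction of 5 ng recombinant human HPK1 with MBP and ATP (stocks 0.5 μg/μl and 25 μM) for 40 min at 30 °C. Buffer was Tris pH 7.5 with MgCl2, BSA and DTT, with compound in 0.5% DMSO. IC50 came from inhibition curves.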

Chain of recombinant human HPK1 (Q92918 whole entry): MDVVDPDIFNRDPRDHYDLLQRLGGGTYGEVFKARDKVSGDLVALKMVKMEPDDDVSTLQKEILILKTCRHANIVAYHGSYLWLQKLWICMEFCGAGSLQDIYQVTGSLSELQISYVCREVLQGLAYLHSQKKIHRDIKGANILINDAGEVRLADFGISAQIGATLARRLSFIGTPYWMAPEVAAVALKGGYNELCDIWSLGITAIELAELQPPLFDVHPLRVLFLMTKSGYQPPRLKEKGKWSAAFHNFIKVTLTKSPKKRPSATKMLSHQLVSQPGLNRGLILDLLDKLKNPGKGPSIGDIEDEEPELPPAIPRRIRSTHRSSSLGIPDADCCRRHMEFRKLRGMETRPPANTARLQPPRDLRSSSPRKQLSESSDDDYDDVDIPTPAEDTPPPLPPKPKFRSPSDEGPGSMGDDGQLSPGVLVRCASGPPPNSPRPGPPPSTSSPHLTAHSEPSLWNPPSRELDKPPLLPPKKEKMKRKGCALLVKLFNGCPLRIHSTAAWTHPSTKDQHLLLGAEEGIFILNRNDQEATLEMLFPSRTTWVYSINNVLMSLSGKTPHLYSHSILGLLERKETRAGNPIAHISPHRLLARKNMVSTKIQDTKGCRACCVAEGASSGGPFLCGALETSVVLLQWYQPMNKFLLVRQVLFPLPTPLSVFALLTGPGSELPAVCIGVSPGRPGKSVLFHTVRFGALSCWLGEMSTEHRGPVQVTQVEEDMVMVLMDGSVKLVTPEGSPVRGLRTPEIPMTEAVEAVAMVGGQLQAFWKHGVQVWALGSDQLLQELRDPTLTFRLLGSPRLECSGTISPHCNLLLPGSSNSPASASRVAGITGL

Row | SMILES | IC50 [µM]
1 | O=C(Nc1cc2cc(-c3c(Cl)c(F)c(Nc4ncccn4)c4[nH]ncc34)ccn2n1)[C@@H]1C[C@@H]1F [Example 601, (1S,2S)-N-(5-(5-chloro-6-fluoro-7-(pyrimidin-2-ylamino)-1H-indazol-4-yl)pyrazolo[1,5-a]pyridin-2-yl)-2-fluorocyclopropane-1-carboxamide] | < 0.1
2 | CCc1c(F)c(SC(C)(C)C#N)c2[nH]ncc2c1-c1ccn2nc(NC(=O)[C@@H]3C[C@@H]3F)cc2c1 [Example 603, (1S,2S)-N-(5-(7-((2-cyanopropan-2-yl)thio)-5-ethyl-6-fluoro-1H-indazol-4-yl)pyrazolo[1,5-a]pyridin-2-yl)-2-fluorocyclopropane-1-carboxamide] | < 0.1
3 | CN(C)C(=O)c1c(F)cc(-c2ccn3nc(NC(=O)[C@@H]4C[C@@H]4F)cc3c2)c2cn[nH]c12 [Example 604, 6-fluoro-4-(2-((1S,2S)-2-fluorocyclopropane-1-carboxamido)pyrazolo[1,5-a]pyridin-5-yl)-N,N-dimethyl-1H-indazole-7-carboxamide] | 0.101 to 0.5
4 | CN(C)C(=O)c1c(F)cc2[nH]ncc2c1-c1ccn2nc(NC(=O)[C@@H]3C[C@@H]3F)cc2c1 [Example 605, 6-fluoro-4-(2-((1S,2S)-2-fluorocyclopropane-1-carboxamido)pyrazolo[1,5-a]pyridin-5-yl)-N,N-dimethyl-1H-indazole-5-carboxamide] | > 1
5 | CCOc1c(F)c(SC)c2[nH]ncc2c1-c1ccn2nc(NC(=O)[C@@H]3C[C@@H]3F)cc2c1 [Example 606, (1S,2S)-N-(5-(5-ethoxy-6-fluoro-7-(methylthio)-1H-indazol-4-yl)pyrazolo[1,5-a]pyridin-2-yl)-2-fluorocyclopropane-1-carboxamide] | < 0.1
6 | O=C(Nc1cc2cc(-c3c(Cl)c(F)c(OC(F)(F)F)c4[nH]ncc34)ccn2n1)[C@@H]1C[C@@H]1F [Example 607, (1S,2S)-N-(5-(5-chloro-6-fluoro-7-(trifluoromethoxy)-1H-indazol-4-yl)pyrazolo[1,5-a]pyridin-2-yl)-2-fluorocyclopropane-1-carboxamide] | < 0.1
7 | CCc1c(F)c(SC2(C#N)CC2)c2[nH]ncc2c1-c1ccn2nc(NC(=O)[C@@H]3C[C@@H]3F)cc2c1 [Example 608, (1S,2S)-N-(5-(7-((1-cyanocyclopropyl)thio)-5-ethyl-6-fluoro-1H-indazol-4-yl)pyrazolo[1,5-a]pyridin-2-yl)-2-fluorocyclopropane-1-carboxamide] | < 0.1
8 | O=C(Nc1cc2cc(-c3c(Cl)c(F)c(Nc4ccncc4)c4[nH]ncc34)ccn2n1)[C@@H]1C[C@@H]1F [Example 609, (1S,2S)-N-(5-(5-chloro-6-fluoro-7-(pyridin-4-ylamino)-1H-indazol-4-yl)pyrazolo[1,5-a]pyridin-2-yl)-2-fluorocyclopropane-1-carboxamide] | < 0.1
9 | CCOc1c(F)c(N(C)C)c2[nH]ncc2c1-c1ccn2nc(NC(=O)[C@@H]3C[C@@H]3F)cc2c1 [Example 610, (1S,2S)-N-(5-(7-(dimethylamino)-5-ethoxy-6-fluoro-1H-indazol-4-yl)pyrazolo[1,5-a]pyridin-2-yl)-2-fluorocyclopropane-1-carboxamide] | < 0.1
10 | CCOc1c(F)c(F)c2[nH]ncc2c1-c1ccn2nc(NC(=O)[C@@H]3C[C@@H]3F)cc2c1 [Example 611, (1S,2S)-N-(5-(5-ethoxy-6,7-difluoro-1H-indazol-4-yl)pyrazolo[1,5-a]pyridin-2-yl)-2-fluorocyclopropane-1-carboxamide] | < 0.1
11 | CN(CC#N)C(=O)c1c(F)c(Cl)c(-c2ccn3nc(NC(=O)[C@@H]4C[C@@H]4F)cc3c2)c2cn[nH]c12 [Example 612, 5-chloro-N-(cyanomethyl)-6-fluoro-4-(2-((1S,2S)-2-fluorocyclopropane-1-carboxamido)pyrazolo[1,5-a]pyridin-5-yl)-N-methyl-1H-indazole-7-carboxamide] | < 0.1
12 | CN(c1ncc(F)cn1)c1c(F)c(Cl)c(-c2ccn3nc(NC(=O)[C@@H]4C[C@@H]4F)cc3c2)c2cn[nH]c12 [Example 613, (1S,2S)-N-(5-(5-chloro-6-fluoro-7-((5-fluoropyrimidin-2-yl)(methyl)amino)-1H-indazol-4-yl)pyrazolo[1,5-a]pyridin-2-yl)-2-fluorocyclopropane-1-carboxamide] | < 0.1
13 | CN(c1ccncc1)c1c(F)c(Cl)c(-c2ccn3nc(NC(=O)[C@@H]4C[C@@H]4F)cc3c2)c2cn[nH]c12 [Example 614, (1S,2S)-N-(5-(5-chloro-6-fluoro-7-(methyl(pyridin-4-yl)amino)-1H-indazol-4-yl)pyrazolo[1,5-a]pyridin-2-yl)-2-fluorocyclopropane-1-carboxamide] | < 0.1
14 | CC(=O)N(CC#N)c1c(F)c(Cl)c(-c2ccn3nc(NC(=O)[C@@H]4C[C@@H]4F)cc3c2)c2cn[nH]c12 [Example 615, (1S,2S)-N-(5-(5-chloro-7-(N-(cyanomethyl)acetamido)-6-fluoro-1H-indazol-4-yl)pyrazolo[1,5-a]pyridin-2-yl)-2-fluorocyclopropane-1-carboxamide] | < 0.1
15 | CN(CCc1ccncc1)c1c(F)c(Cl)c(-c2ccn3nc(NC(=O)[C@@H]4C[C@@H]4F)cc3c2)c2cn[nH]c12 [Example 616, (1S,2S)-N-(5-(5-chloro-6-fluoro-7-(methyl(2-(pyridin-4-yl)ethyl)amino)-1H-indazol-4-yl)pyrazolo[1,5-a]pyridin-2-yl)-2-fluorocyclopropane-1-carboxamide] | < 0.1
16 | CN(c1ncncn1)c1c(F)c(Cl)c(-c2ccn3nc(NC(=O)[C@@H]4C[C@@H]4F)cc3c2)c2cn[nH]c12 [Example 617, (1S,2S)-N-(5-(5-chloro-6-fluoro-7-(methyl(1,3,5-triazin-2-yl)amino)-1H-indazol-4-yl)pyrazolo[1,5-a]pyridin-2-yl)-2-fluorocyclopropane-1-carboxamide] | < 0.1
17 | CN(c1nccnn1)c1c(F)c(Cl)c(-c2ccn3nc(NC(=O)[C@@H]4C[C@@H]4F)cc3c2)c2cn[nH]c12 [Example 618, (1S,2S)-N-(5-(5-chloro-6-fluoro-7-(methyl(1,2,4-triazin-3-yl)amino)-1H-indazol-4-yl)pyrazolo[1,5-a]pyridin-2-yl)-2-fluorocyclopropane-1-carboxamide] | < 0.1
18 | CC(C)Nc1c(F)c(Cl)c(-c2ccn3nc(NC(=O)[C@@H]4C[C@@H]4F)cc3c2)c2cn[nH]c12 [Example 619, (1S,2S)-N-(5-(5-chloro-6-fluoro-7-(isopropylamino)-1H-indazol-4-yl)pyrazolo[1,5-a]pyridin-2-yl)-2-fluorocyclopropane-1-carboxamide] | < 0.1
19 | CN(c1c(F)c(Cl)c(-c2ccn3nc(NC(=O)[C@@H]4C[C@@H]4F)cc3c2)c2cn[nH]c12)C1CCC1 [Example 620, (1S,2S)-N-(5-(5-chloro-7-(cyclobutyl(methyl)amino)-6-fluoro-1H-indazol-4-yl)pyrazolo[1,5-a]pyridin-2-yl)-2-fluorocyclopropane-1-carboxamide] | < 0.1
20 | CCSc1c(F)c(Cl)c(-c2ccn3nc(NC(=O)[C@@H]4C[C@@H]4F)cc3c2)c2cn[nH]c12 [Example 621, (1S,2S)-N-(5-(5-chloro-7-(ethylthio)-6-fluoro-1H-indazol-4-yl)pyrazolo[1,5-a]pyridin-2-yl)-2-fluorocyclopropane-1-carboxamide] | < 0.1
21 | CC(C)N(C)c1c(F)c(Cl)c(-c2ccn3nc(NC(=O)[C@@H]4C[C@@H]4F)cc3c2)c2cn[nH]c12 [Example 622, (1S,2S)-N-(5-(5-chloro-6-fluoro-7-(isopropyl(methyl)amino)-1H-indazol-4-yl)pyrazolo[1,5-a]pyridin-2-yl)-2-fluorocyclopropane-1-carboxamide] | < 0.1
22 | CN1CCN(c2c(F)c(Cl)c(-c3ccn4nc(NC(=O)[C@@H]5C[C@@H]5F)cc4c3)c3cn[nH]c23)C1=O [Example 623, (1S,2S)-N-(5-(5-chloro-6-fluoro-7-(3-methyl-2-oxoimidazolidin-1-yl)-1H-indazol-4-yl)pyrazolo[1,5-a]pyridin-2-yl)-2-fluorocyclopropane-1-carboxamide] | < 0.1
23 | COC1CN(c2c(F)c(Cl)c(-c3ccn4nc(NC(=O)[C@@H]5C[C@@H]5F)cc4c3)c3cn[nH]c23)C1 [Example 624, (1S,2S)-N-(5-(5-chloro-6-fluoro-7-(3-methoxyazetidin-1-yl)-1H-indazol-4-yl)pyrazolo[1,5-a]pyridin-2-yl)-2-fluorocyclopropane-1-carboxamide] | < 0.1
24 | CN(c1c(F)c(Cl)c(-c2ccn3nc(NC(=O)[C@@H]4C[C@@H]4F)cc3c2)c2cn[nH]c12)C1CC1 [Example 625, (1S,2S)-N-(5-(5-chloro-7-(cyclopropyl(methyl)amino)-6-fluoro-1H-indazol-4-yl)pyrazolo[1,5-a]pyridin-2-yl)-2-fluorocyclopropane-1-carboxamide] | < 0.1
25 | O=Cc1c(F)c(Cl)c(-c2ccn3nc(NC(=O)[C@@H]4C[C@@H]4F)cc3c2)c2cn[nH]c12 [Example 626, (1S,2S)-N-(5-(5-chloro-6-fluoro-7-formyl-1H-indazol-4-yl)pyrazolo[1,5-a]pyridin-2-yl)-2-fluorocyclopropane-1-carboxamide] | < 0.1
26 | COCC1CN(c2c(F)c(Cl)c(-c3ccn4nc(NC(=O)[C@@H]5C[C@@H]5F)cc4c3)c3cn[nH]c23)C1 [Example 627, (1S,2S)-N-(5-(5-chloro-6-fluoro-7-(3-(methoxymethyl)azetidin-1-yl)-1H-indazol-4-yl)pyrazolo[1,5-a]pyridin-2-yl)-2-fluorocyclopropane-1-carboxamide] | < 0.1
27 | O=C(Nc1cc2cc(-c3c(Cl)c(F)c(N4CCS(=O)(=O)CC4)c4[nH]ncc34)ccn2n1)[C@@H]1C[C@@H]1F [Example 628, (1S,2S)-N-(5-(5-chloro-7-(1,1-dioxidothiomorpholino)-6-fluoro-1H-indazol-4-yl)pyrazolo[1,5-a]pyridin-2-yl)-2-fluorocyclopropane-1-carboxamide] | < 0.1
